From patent US12440496B2, “Natriuretic peptide receptor a agonists useful for the treatment of cardiometabolic diseases, kidney disease and diabetes” (Merck Sharp & Dohme LLC, priority 2019, dated 2025)
Structures can show the parent of a compound that is named as a salt.

target: T1, hNPRA (Homo sapiens, UniProt P16066); assay: NPRA Functional Cell Assay (cGMP HTRF, NPRA HEK JumpIn stable cells); assay type: cell-based; details: cGMP production, 1 hour at 37° C., 10-point dose response
T1 construct: expressed in transfected cells
T1 sequence (P16066 33-1061): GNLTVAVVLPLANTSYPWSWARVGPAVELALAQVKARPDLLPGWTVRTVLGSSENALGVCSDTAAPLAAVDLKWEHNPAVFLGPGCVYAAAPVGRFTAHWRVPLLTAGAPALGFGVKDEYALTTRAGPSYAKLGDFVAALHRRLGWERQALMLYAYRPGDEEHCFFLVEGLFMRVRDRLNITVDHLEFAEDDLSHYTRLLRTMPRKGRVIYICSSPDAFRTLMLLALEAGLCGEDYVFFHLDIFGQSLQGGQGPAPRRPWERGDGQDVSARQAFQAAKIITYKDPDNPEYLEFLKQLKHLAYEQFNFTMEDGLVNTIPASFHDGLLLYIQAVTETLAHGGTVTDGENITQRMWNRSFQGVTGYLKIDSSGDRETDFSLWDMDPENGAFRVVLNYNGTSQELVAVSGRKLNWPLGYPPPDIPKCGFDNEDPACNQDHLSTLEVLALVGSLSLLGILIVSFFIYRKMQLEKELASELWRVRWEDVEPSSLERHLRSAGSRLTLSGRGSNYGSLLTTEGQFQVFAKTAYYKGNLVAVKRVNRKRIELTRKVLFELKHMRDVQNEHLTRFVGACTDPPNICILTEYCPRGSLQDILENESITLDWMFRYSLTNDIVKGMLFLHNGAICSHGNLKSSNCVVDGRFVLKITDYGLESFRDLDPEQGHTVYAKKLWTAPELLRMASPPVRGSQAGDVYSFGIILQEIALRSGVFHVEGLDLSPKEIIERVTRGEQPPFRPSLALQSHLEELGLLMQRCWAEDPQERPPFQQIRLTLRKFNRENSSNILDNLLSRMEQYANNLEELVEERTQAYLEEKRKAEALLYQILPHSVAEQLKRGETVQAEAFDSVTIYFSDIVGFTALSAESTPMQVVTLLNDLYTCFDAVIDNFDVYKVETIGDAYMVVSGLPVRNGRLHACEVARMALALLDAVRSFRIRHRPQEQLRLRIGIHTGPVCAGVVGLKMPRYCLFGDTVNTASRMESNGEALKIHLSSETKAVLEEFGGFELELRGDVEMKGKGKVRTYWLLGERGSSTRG
Method in brief: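 cGMP HTRF read-out after 1 hour compound treatment at 37° C. of human NPRA-expressing HEK JumpIn cells, 1500 cells/well, in buffer with phosphodiesterase inhibitors IBMX and RO20 (100 uM each). Signal converted to [cGMP] by calibration curve; EC50s fitted by 4-parameter logistic; 50 nM h-ANP as positive response.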

**Q.** How did the EC50 turn out when `COC(=O)C1CCN(CC[C@@H](NC(=O)c2nc3cc4c(nc3s2)CC[C@H](C(C)(C)C)C4)c2cccc(C(=O)NC3CN(C)C3)c2)CC1` (racemic) [Example 114, methyl 1-[rac-(3R)-3-[3-[(1-methylazetidin-1-ium-3-yl)carbamoyl]phenyl]-3-[[rac-(7S)-7-tert-butyl-5,6,7,8-tetrahydrothiazolo[5,4-b]quinoline-2-carbonyl]amino]propyl] piperidine-4-carboxylate; 2,2,2-trifluoroacetate] was run?
**A.** 671 nM

**Q.** For `CN1CC(NC(=O)c2cccc([C@@H](CCNCC(=O)O)NC(=O)c3nc4cc5c(nc4s3)CC[C@H](C(C)(C)C)C5)c2)C1` (racemic) [Example 115, carboxymethyl-[rac-(3R)-3-[3-[(1-methylazetidin-3-yl)carbamoyl]phenyl]-3-[rac-(7S)-7-tert-butyl-5,6,7,8-tetrahydrothiazolo[5,4-b]quinoline-2-carbonyl]amino]propyl]ammonium; 2,2,2-trifluoroacetate], which EC50 is on record?
**A.** 1410 nM

**Q.** For `CC(C)(C)[C@H]1CCc2nc3sc(C(=O)N[C@H](CCN4CCC(O)CC4)c4cccc(N5CC6(CCNCC6)OC5=O)c4)nc3cc2C1` (racemic) [Example 116, rac-(7S)-7-tert-butyl-N-[rac-(1R)-3-(4-hydroxy-1-piperidyl)-1-[3-(2-oxo-1-oxa-3-aza-8-azoniaspiro [4.5]decan-3-yl)phenyl]propyl]-5,6,7,8-tetrahydrothiazolo[5,4-b] quinoline-2-carboxamide; 2,2,2-trifluoroacetate], which EC50 is on record?
**A.** 622 nM

**Q.** How did the EC50 turn out when `CC(C)(C)[C@H]1CCc2nc3sc(C(=O)N[C@H](CCN4CCC(O)CC4)c4cccc(N5CCNC5=O)c4)nc3cc2C1` (racemic) [Example 117, rac-(7S)-7-tert-butyl-N-[rac-(1R)-3-(4-hydroxypiperidin-1-ium-1-yl)-1-[3-(2-oxoimidazolidin-1-yl)phenyl]propyl]-5,6,7,8-tetrahydrothiazolo[5,4-b] quinoline-2-carboxamide; 2,2,2-trifluoroacetate] was run?
**A.** 795 nM

**Q.** For `CC(C)(C)[C@H]1CCc2nc3sc(C(=O)N[C@H](CCN4CCC(O)CC4)c4cccc(NC(=O)C5CCNC5)c4)nc3cc2C1` (mixture of isomers) [Example 118, rac-(7S)-7-tert-butyl-N-[rac-(1R)-3-(4-hydroxy-1-piperidyl)-1-[3-(pyrrolidin-1-ium-3-carbonylamino)phenyl]propyl]-5,6,7,8-tetrahydrothiazolo[5,4-b] quinoline-2-carboxamide; 2,2,2 trifluoroacetate], which EC50 is on record?
**A.** 985 nM

**Q.** Which EC50 does the source give for `CC(C)(C)[C@H]1CCc2nc3sc(C(=O)N[C@H](CCN4CCC(O)CC4)c4cccc(NC(=O)CCN)c4)nc3cc2C1` (racemic) [Example 119, [3-oxo-3-[3-[rac-(1R)-3-(4-hydroxy-1-piperidyl)-1-[[rac-(7S)-7-tert-butyl-5,6,7,8-tetrahydrothiazolo [5,4-b]quinoline-2-carbonyl]amino]propyl]anilino]propyl]ammonium; 2,2,2-trifluoroacetate] here?
**A.** 1210 nM

**Q.** How did the EC50 turn out when `CC(C)(C)[C@H]1CCc2nc3sc(C(=O)N[C@H](CCN4CCC(O)CC4)c4cccc(N5CCOC5=O)c4)nc3cc2C1` (racemic) [Example 120, rac-(7S)-7-tert-butyl-N-[rac-(1R)-3-(4-hydroxypiperidin-1-ium-1-yl)-1-[3-(2-oxooxazolidin-3-yl)phenyl]propyl]-5,6,7,8-tetrahydrothiazolo[5,4-b] quinoline-2-carboxamide; 2,2,2-trifluoroacetate] was run?
**A.** 1670 nM

**Q.** How did the EC50 turn out when `CN1CCC(NC(=O)c2cccc([C@@H](CCN3CCC(C(=O)O)CC3)NC(=O)c3nc4cc5c(nc4s3)CC[C@H](C(C)(C)C)C5)c2)C1` (mixture of isomers) [Example 121, 1-[rac-(3R)-3-[3-[(1-methylpyrrolidin-3-yl)carbamoyl]phenyl]-3-[[rac-(7S)-7-tert-butyl-5,6,7,8-tetrahydrothiazolo [5,4-b]quinoline-2-carbonyl]amino]propyl]piperidine-4-carboxylic acid] was run?
**A.** 224 nM

**Q.** With `CC(C)(C)[C@H]1CCc2nc3sc(C(=O)N[C@H](CCN4CCC(C(=O)O)CC4)c4cccc(C(=O)NC5CNC5)c4)nc3cc2C1` (racemic) [Example 122, 1-[rac-(3R)-3-[3-(azetidin-1-ium-3-ylcarbamoyl)phenyl]-3-[rac-(7S)-7-tert-butyl-5,6,7,8-tetrahydrothiazolo [5,4-b]quinoline-2-carbonyl]amino]propyl] piperidine-4-carboxylic acid; 2,2,2-trifluoroacetate] as the molecule, how does the EC50 read?
**A.** 637 nM

**Q.** Which EC50 does the source give for `CC(C)(C)[C@H]1CCc2nc3sc(C(=O)N[C@H](CCN4CCC(C(=O)O)CC4)c4cccc(C(=O)NC5CN(Cc6ccccc6)C5)c4)nc3cc2C1` (racemic) [Example 123, 1-[rac-(3R)-3-[3-{(1-benzylazetidin-3-yl)carbamoyl]phenyl]-3-[[rac-(7S)-7-tert-butyl-5,6,7,8-tetrahydrothiazolo [5,4-b]quinoline-2-carbonyl]amino]propyl] piperidin-1-ium-4-carboxylic acid; 2,2,2-trifluoroacetate] here?
**A.** 657 nM

**Q.** How did the EC50 turn out when `CC(C)(C)[C@H]1CCc2nc3sc(C(=O)N[C@H](CCN4CCC(C(=O)O)CC4)c4cccc(C(=O)NC5CCN(C6CC6)C5)c4)nc3cc2C1` (mixture of isomers) [Example 124, 1-[rac-(3R)-3-[3-[(1-cyclopropylpyrrolidin-3-yl)carbamoyl]phenyl]-3-[[rac-(7S)-7-tert-butyl-5,6,7,8-tetrahydrothiazolo [5,4-b]quinoline-2-carbonyl]amino]propyl]piper idin-1-ium-4-carboxylic acid; 2,2,2-trifluoroacetate] was run?
**A.** 929 nM

**Q.** How did the EC50 turn out when `CC1(NC(=O)c2cccc([C@@H](CCN3CCC(C(=O)O)CC3)NC(=O)c3nc4cc5c(nc4s3)CC[C@H](C(C)(C)C)C5)c2)CNC1` (racemic) [Example 125, 1-[rac-(3R)-3-[3-[(3-methylazetidin-1-ium-3-yl)carbamoyl]phenyl]-3-[[rac-(7S)-7-tert-butyl-5,6,7,8-tetrahydrothiazolo [5,4-b]quinoline-2-carbonyl]amino]propyl] piperidine-4-carboxylic acid; 2,2,2-trifluoroacetate] was run?
**A.** 2000 nM

**Q.** With `CC(C)(C)[C@H]1CCc2nc3sc(C(=O)N[C@H](CCN4CCC(O)CC4)c4ccc(-c5csc(C(=O)O)c5)cc4)nc3cc2C1` (racemic) [Example 126, 4-[4-[rac-(1R)-3-(4-hydroxy-1-piperidyl)-1-[[rac-(7S)-7-tert-butyl-5,6,7,8-tetrahydrothiazolo[5,4-b]quinoline-2-carbonyl]amino]propyl]phenylthiophene-2-carboxylic acid] as the molecule, how does the EC50 read?
**A.** 374 nM

**Q.** With `CC(C)(C)[C@H]1CCc2nc3sc(C(=O)N[C@H](CCN4CCC(O)CC4)c4ccc(-c5cnc(=O)[nH]c5)cc4)nc3cc2C1` (racemic) [Example 127, rac-(7S)-7-tert-butyl-N-[rac-(1R)-3-(4-hydroxypiperidin-1-ium-1-yl)-1-[4-(2-oxo-1H-pyrimidin-5-yl)phenyl]propyl]-5,6,7,8-tetrahydrothiazolo [5,4-b]quinoline-2-carboxamide; 2,2,2-trifluoroacetate] as the molecule, how does the EC50 read?
**A.** 452 nM

**Q.** For `CC(C)(C)[C@H]1CCc2nc3sc(C(=O)N[C@H](CCN4CCC(O)CC4)c4ccc(-c5ccc(OCCF)nc5)cc4)nc3cc2C1` (racemic) [Example 128, rac-(7S)-7-tert-butyl-N-[rac-(1R)-1-[4-[6-(2-fluoroethoxy)-3-pyridyl]phenyl]-3-(4-hydroxypiperidin-1-ium-1-yl)propyl]-5,6,7,8-tetrahydrothiazolo[5,4-b] quinoline-2-carboxamide; 2,2,2-trifluoroacetate], which EC50 is on record?
**A.** 1180 nM

**Q.** `CC(C)(C)[C@H]1CCc2nc3sc(C(=O)N[C@H](CCN4CCC(O)CC4)c4ccc(-c5ccc(O)cc5)cc4)nc3cc2C1` (racemic) [Example 129, rac-(7S)-7-tert-butyl-N-[rac-(1R)-1-[4-(4-hydroxyphenyl)phenyl]-3-(4-hydroxypiperidin-1-ium-1-yl)propyl]-5,6,7,8-tetrahydrothiazolo[5,4-b] quinoline-2-carboxamide; 2,2,2-trifluoroacetate] was tested. Which EC50 did it give?
**A.** 1440 nM

**Q.** With `CC(C)(C)[C@H]1CCc2nc3sc(C(=O)N[C@H](CCN4CCC(O)CC4)c4cccc(C(=O)N[C@@H]5CCNC5)c4)nc3cc2C1` (racemic) [Example 130, rac-(7S)-7-tert-butyl-N-[rac-(1R)-3-(4-hydroxy-1-piperidyl)-1-[3-[[rac-(3R)-pyrrolidin-3-yl]carbamoyl]phenyl]propyl]-5,6,7,8-tetrahydrothiazolo[5,4-b]quinoline-2-carboxamide] as the molecule, how does the EC50 read?
**A.** 96.5 nM
